# Measured values reported in patent publication US6846933B1, “Antimycobacterial compounds and method for making the same” (priority 2000, dated 2005).
# Where two headings read alike, the source gives them in different places.
# Assays:
# [1] = system: Mycobacterium tuberculosis H37Rv (ATCC 27294); assay: TAACF MIC / primary screen vs M. tuberculosis H37Rv (MABA or BACTEC 460); assay type: cell-based; conditions: for MIC: Mycobacterium tuberculosis; for MIC (ug/mg): Table 1, M. tuberculosis assay
# [2] = system: M. tuberculosis Erdman (ATCC 35801) in monolayers of mouse bone marrow macrophages; assay: Killing of M. tuberculosis Erdman in mouse bone marrow macrophages; assay type: cell-based; conditions: Mycobacterium tuberculosis, Bone marrow macrophage, 168 h
# M. tuberculosis TAC-R = assay: microbe, parasite or virus in culture; assay type: cell-based; conditions: Mycobacterium tuberculosis, Bactec, strain panel
# M. avium (ATCC 25291) = assay: TAACF M. avium assay; assay type: cell-based, Mycobacterium avium; parameters: % Inhibition: concentration or dose not given beside the values; conditions: for % Inhibition: M. avium assay; for MIC: Mycobacterium avium, ATCC25291, M. avium assay
# M. tuberculosis Erdman = assay: MIC vs M. tuberculosis Erdman; assay type: cell-based; conditions: Mycobacterium tuberculosis
# [3] = Quantitative estimate of relative lipophilicity (chloroform/water partitioning vs isoniazid); conditions: ratio chloroform:water compared to same ratio for isoniazid as standard (INH = unity)
# M. tuberculosis ETA-R = assay: MIC vs ETA-R M. tuberculosis; assay type: cell-based; conditions: Mycobacterium tuberculosis, read-out: MIC ETA-R (ug/ml)
# M. tuberculosis EMB-R = assay: microbe, parasite or virus in culture; assay type: cell-based; conditions: Mycobacterium tuberculosis, read-out: MIC EMB-R (ug/ml)
# VERO cells = assay: Cytotoxicity in VERO cells (MTT, 72 hours); assay type: cell-based; conditions: Chlorocebus sabaeus
# M. tuberculosis H37Rv = assay: Minimum bactericidal concentration vs H37Rv; assay type: cell-based; conditions: Mycobacterium tuberculosis, read-out: MBC vs H37Rv (ug/ml)
# M. tuberculosis INH-r = assay: microbe, parasite or virus in culture; assay type: cell-based; conditions: Mycobacterium tuberculosis, read-out: MBC vs INH-r (ug/ml)
# M. tuberculosis RMP-R = assay: microbe, parasite or virus in culture; assay type: cell-based; conditions: Mycobacterium tuberculosis, read-out: MBC vs RMP-R (ug/ml)
# [4] = M. tuberculosis assay, Tables 4 and 5, read-out: MIC
# [5] = M. tuberculosis assay, Table 13, primary screen
# [6] = M. tuberculosis assay, Table 13, primary screen, read-out: MIC
# [7] = Alamar, Table 11, read-out: MIC
# [8] = BACTEC, Tables 2 and 3, read-out: MIC
# [9] = Bactec, strain panel, read-out: MIC H37Rv
# [10] = M. tuberculosis assay, Bactec, Tables 6, 7, 8, read-out: MIC
# [11] = Bactec, strain panel, read-out: MIC Erdman
# [12] = Bactec, Tables 10-12, read-out: MIC
# [13] = M. tuberculosis assay, Alamar, Table 7
# [14] = M. tuberculosis assay, Alamar, Tables 7 and 9
# [15] = M. tuberculosis assay, Bactec, Tables 6, 7, 8
structure (smiles),measurement,setting,value
O=C(N/N=C/c1ccccc1)c1ccncc1 [Sample ID 102787],MIC,[1]; [4],0.1 µg/mL
same,EC90,[2],0.04 µg/mL
same,EC99,[2],0.12 µg/mL
O=C(NNC(=S)Nc1ccccc1)c1ccncc1 [Sample ID 122697],% Inhibition,[1]; [5],79%
same,MIC,[1]; [6],> 12.5 µg/mL
CCCCCCCCCCCC/C=N/NC(=O)c1ccncc1 [Sample ID 102094],MIC,[1]; [4],0.2 µg/mL
same,EC90,[2],0.08 µg/mL
same,EC99,[2],> 3.2 µg/mL
O=C(N/N=C/c1cccc(/C=N/NC(=O)c2ccncc2)c1)c1ccncc1 [Sample ID 102043],MIC,[1]; [4],0.05 µg/mL
same,EC90,[2],0.04 µg/mL
same,EC99,[2],> 0.8 µg/mL
O=C(N/N=C/c1cc(Cl)ccc1Cl)c1ccncc1 [Sample ID 117150],MIC,M. tuberculosis TAC-R,> 3.25 µg/mL
same,% Inhibition,"M. avium (ATCC 25291); Alamar, Table 11",0%
same,MIC,M. avium (ATCC 25291); [7],> 12.5 µg/mL
same,MIC,M. avium (ATCC 25291); [8],> 3.25 µg/mL
same,MIC,M. tuberculosis Erdman; read-out: MIC Erdman (ug/ml),< 0.05 µg/mL
same,MIC,[1]; [9],< 0.05 µg/mL
same,MIC,[1]; [10],0.1 µg/mL
"CC(=O)N1N=C(c2ccncc2)OC1c1c(Cl)cccc1Cl (stereo not drawn) [Oxadiazoline Example 4, 2-(2,6-Dichlorophenyl)-3-acetyl-5-(4-pyridyl)-1,3,4-oxadiazoline]",Relative Lipophilicity,[3],"35,667"
CC(=O)N1N=C(c2ccncc2)OC1c1c(Cl)cccc1Cl (stereo not drawn) [Sample ID 117899],% Inhibition,"M. avium (ATCC 25291); Alamar, Table 11",12%
same,MIC,M. avium (ATCC 25291); [7],> 12.5 µg/mL
CCOC(=O)/C(CCc1ccccc1)=N\NC(=O)c1ccncc1 [Sample ID 132358],MIC,M. avium (ATCC 25291); [8],> 3.2 µg/mL
same,MIC,M. tuberculosis Erdman; [11],0.1 µg/mL
same,MIC,[1]; [9],0.1 µg/mL
same,MIC (ug/mg),[1]; Bactec,0.1 µg/mL
same,MIC,M. tuberculosis ETA-R,0.8 µg/mL
same,MIC,M. tuberculosis EMB-R,> 3.2 µg/mL
CC(=O)N1N=C(c2ccncc2)OC1c1ccc(Cl)c(Cl)c1 (stereo not drawn) [Sample ID 123669],% Inhibition,"M. avium (ATCC 25291); Bactec, Tables 10-12",65%
same,MIC,M. avium (ATCC 25291); [12],> 12.5 µg/mL
O=C(N/N=C/c1c(F)cccc1F)c1ccncc1 [Sample ID 122489],% Inhibition,"M. avium (ATCC 25291); Bactec, Tables 10-12",45%
same,MIC,M. avium (ATCC 25291); [12],> 12.5 µg/mL
same,% Inhibition,[1]; [13],99%
same,MIC,[1]; [14],< 0.2 µg/mL
same,IC50,VERO cells,> 125 µg/mL
O=C(NN=C1CCCCC1)c1ccncc1 [Sample ID 102674],MIC,[1]; [4],0.03 µg/mL
same,EC90,[2],0.08 µg/mL
same,EC99,[2],> 0.4 µg/mL
COc1ccc(/C=N/NC(=O)c2ccncc2)cc1 [Sample ID 102866],MIC,M. tuberculosis TAC-R,< 3.25 µg/mL
same,MIC,M. avium (ATCC 25291); [8],3.25 µg/mL
same,MIC,M. tuberculosis Erdman; read-out: MIC Erdman (ug/ml),< 0.05 µg/mL
same,MIC,[1]; [9],< 0.05 µg/mL
same,MIC,[1]; [10],0.1 µg/mL
same,MIC,[1]; [4],0.1 µg/mL
same,EC90,[2],0.04 µg/mL
same,EC99,[2],0.15 µg/mL
CC(=O)N1N=C(c2ccncc2)OC1c1ccc(Cl)c([N+](=O)[O-])c1 (stereo not drawn) [Sample ID 122491],% Inhibition,[1]; [5],98%
same,MIC,[1]; [6],< 12.5 µg/mL
CC(=O)N1N=C(c2ccncc2)OC1c1c(F)cccc1F (stereo not drawn) [Sample ID 122492],% Inhibition,[1]; [5],99%
same,MIC,[1]; [6],< 12.5 µg/mL
"O=C(NN=Cc1ccccc1[N+](=O)[O-])c1ccncc1 [Schiff Base Example 47, Isonicotinoylhydrazone of 2-Nitrobenzaldehyde]",Relative Lipophilicity,[3],316
CCCC(=O)NNC(=O)c1ccncc1,melting point,,142 °C
O=C(N/N=C/c1ccc(Cl)c(Cl)c1)c1ccncc1 [Sample ID 122490],% Inhibition,"M. avium (ATCC 25291); Bactec, Tables 10-12",20%
same,MIC,M. avium (ATCC 25291); [12],> 12.5 µg/mL
same,% Inhibition,[1]; [13],99%
same,MIC,"[1]; M. tuberculosis assay, Alamar, Tables 7 and 9, read-out: MIC",< 0.2 µg/mL
same,IC50,VERO cells,> 10 µg/mL
CCCCOc1ccc(/C=N/NC(=O)c2ccncc2)cc1 [Sample ID 102090],MIC,[1]; [4],0.1 µg/mL
same,EC90,[2],0.18 µg/mL
same,EC99,[2],> 1.6 µg/mL
O=C(N/N=C/c1ccc(F)cc1)c1ccncc1 [Sample ID 103167],MIC,[1]; [4],0.1 µg/mL
same,EC90,[2],0.02 µg/mL
same,EC99,[2],0.07 µg/mL
COc1cc(/C=N/NC(=O)c2ccncc2)ccc1O [Sample ID 102858],MIC,[1]; [4],0.2 µg/mL
same,EC90,[2],0.03 µg/mL
same,EC99,[2],0.12 µg/mL
CCCCC(=O)NNC(=O)c1ccncc1,melting point,,162 °C
CC(=O)N1N=C(c2ccncc2)OC1(C)c1ccccc1 (stereo not drawn) [Sample ID 122487],% Inhibition,[1]; [5],98%
same,MIC,[1]; [6],< 12.5 µg/mL
O=C(NNC(=S)Nc1ccc(Br)cc1)c1ccncc1 [Sample ID 125304],% Inhibition,"M. avium (ATCC 25291); Bactec, Tables 10-12",15%
same,MIC,M. avium (ATCC 25291); [12],> 12.5 µg/mL
O=CNNC(=O)c1ccncc1,melting point,,94 to 96 °C
"CO[C@H]1/C=C/O[C@@]2(C)Oc3c(C)c(O)c4c(O)c(c(/C=N/N5CCN(C)CC5)c(O)c4c3C2=O)NC(=O)/C(C)=C\C=C\[C@H](C)[C@H](O)[C@@H](C)[C@@H](O)[C@@H](C)[C@H](OC(C)=O)[C@@H]1C [RMP, rifampin, reference compound]",MIC,"[1]; read-out: MIC of RMP vs H37Rv (Comment, Table 9), control in MBC test",0.5 µg/mL
same,"% inhibition vs. M. tuberculosis (RMP control, Comment)",[1]; RMP at its MIC 0.25 μg/ml,99%
same,IC50,VERO cells,68 µg/mL
CC(C)=CCCC(C)C/C=N/NC(=O)c1ccncc1 (stereo not drawn) [Sample ID 102044],MIC,M. tuberculosis TAC-R,3.13 µg/mL
same,MIC,M. avium (ATCC 25291); [8],0.78 µg/mL
same,MIC,M. tuberculosis Erdman; [11],< 0.1 µg/mL
same,MIC,[1]; [9],< 0.1 µg/mL
same,MIC,[1]; [10],0.2 µg/mL
same,MIC,[1]; [4],0.2 µg/mL
same,EC90,[2],0.02 µg/mL
same,EC99,[2],0.08 µg/mL
CC(=O)NNC(=O)c1ccncc1,melting point,,158 to 160 °C
O=C(NN=C1CCCC1)c1ccncc1 [Sample ID 111298],MIC,M. tuberculosis Erdman; read-out: MIC Erdman (ug/ml),0.05 µg/mL
same,MIC,[1]; [15],0.02 µg/mL
same,MIC,[1]; [4],0.025 µg/mL
same,MIC,"[1]; read-out: MIC H37Rv (ug/ml), Bactec, strain panel",0.05 µg/mL
same,MIC,M. tuberculosis EMB-R,0.05 µg/mL
same,EC90,[2],0.03 µg/mL
same,EC99,[2],0.16 µg/mL
CC(/C=N/NC(=O)c1ccncc1)=C\c1ccccc1 [Sample ID 103062],MIC,[1]; [4],0.2 µg/mL
same,EC90,[2],0.03 µg/mL
same,EC99,[2],0.15 µg/mL
O=C(NNC(=S)Nc1ccc(Cl)cc1)c1ccncc1 [Sample ID 126719],% Inhibition,"M. avium (ATCC 25291); Bactec, Tables 10-12",84%
same,MIC,"M. avium (ATCC 25291); Bactec, Tables 10-12",> 12.5 µg/mL
CCOC(=O)C/C(C)=N/NC(=O)c1ccncc1 [Sample ID 101743],MIC,[1]; [4],0.2 µg/mL
same,EC90,[2],0.01 µg/mL
same,EC99,[2],> 3.2 µg/mL
O=C(N/N=C/C=C(c1ccccc1)c1ccccc1)c1ccncc1 [Sample ID 132532],MIC,M. avium (ATCC 25291); [8],> 3.2 µg/mL
same,MIC,M. tuberculosis Erdman; [11],0.1 µg/mL
same,MIC,[1]; [9],0.1 µg/mL
same,MIC (ug/mg),[1]; Bactec,0.1 µg/mL
same,MIC,M. tuberculosis ETA-R,1.6 µg/mL
same,MIC,M. tuberculosis EMB-R,> 3.2 µg/mL
CCC/C(CC(=O)OCC)=N/NC(=O)c1ccncc1 [Sample ID 101702],MBC,M. tuberculosis H37Rv,≥ 0.19 µg/mL
same,MIC,[1]; [14],0.39 µg/mL
same,MBC,M. tuberculosis INH-r,> 12.5 µg/mL
same,MBC,M. tuberculosis RMP-R,0.39 µg/mL
CC(=O)N1N=C(c2ccncc2)OC1c1ccccc1[N+](=O)[O-] (stereo not drawn) [Sample ID 123667],% Inhibition,[1]; [5],38%
same,MIC,[1]; [6],> 12.5 µg/mL
COc1ccccc1/C=N/NC(=O)c1ccncc1 [Sample ID 102871],MIC,[1]; [4],0.2 µg/mL
same,EC90,[2],0.06 µg/mL
same,EC99,[2],0.23 µg/mL
CC(C)=NNC(=O)c1ccncc1 [Sample ID 102752],MIC,[1]; [4],0.1 µg/mL
same,EC90,[2],0.03 µg/mL
same,EC99,[2],0.14 µg/mL
CC1C/C(=N/NC(=O)c2ccncc2)CC(C)(C)C1 (stereo not drawn) [Sample ID 114353],MIC,M. tuberculosis Erdman; [11],< 0.1 µg/mL
same,MIC,[1]; [9],< 0.1 µg/mL
same,MIC,[1]; [15],> 6.25 µg/mL
same,MIC,M. tuberculosis EMB-R,< 0.1 µg/mL
